Consider 30 molecules from patent publication US20250059174A1, “Pharmaceutical Compounds and Compositions as C-Kit Kinase Inhibitors” (Enanta Pharmaceuticals, Inc., priority 2023, published 2025).

A value given as a limit tells only on which side of the number the result lay.

Test [1] deals with Recombinant human c-KIT kinase (Homo sapiens (Human), UniProt P10721). Put plainly: c-KIT kinase chemiluminescence assay (ADP-Glo). Type of test: biochemical. The settings on record: ATP 50 μM. In outline:
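ADP formed by c-KIT on polyEY over 2 h at RT (after 30 min enzyme preincubation; Tris pH 7.5, MgCl2, BSA, DTT buffer) was detected by ADP-Glo luminescence. IC50 and Hill slope were fitted to control-normalized activity across compound concentrations.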

Test [2] has as its system M-07e cells. Put plainly: M-07e cellular assay (SCF-mediated cell proliferation). Type of test: cell-based. The settings on record: Homo sapiens, 72 hours, CellTiter Glo. In outline: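 EC50 values reflect inhibition of SCF-driven proliferation, with SCF at EC90 and a 72 h compound exposure, measured as CellTiter Glo luminescence. Growth is scaled between no-SCF (0%) and untreated (100%) wells.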
(In general: ATP-based viability assays read luminescence as a measure of living cells.)

Sequence of Recombinant human c-KIT kinase (P10721 26-976): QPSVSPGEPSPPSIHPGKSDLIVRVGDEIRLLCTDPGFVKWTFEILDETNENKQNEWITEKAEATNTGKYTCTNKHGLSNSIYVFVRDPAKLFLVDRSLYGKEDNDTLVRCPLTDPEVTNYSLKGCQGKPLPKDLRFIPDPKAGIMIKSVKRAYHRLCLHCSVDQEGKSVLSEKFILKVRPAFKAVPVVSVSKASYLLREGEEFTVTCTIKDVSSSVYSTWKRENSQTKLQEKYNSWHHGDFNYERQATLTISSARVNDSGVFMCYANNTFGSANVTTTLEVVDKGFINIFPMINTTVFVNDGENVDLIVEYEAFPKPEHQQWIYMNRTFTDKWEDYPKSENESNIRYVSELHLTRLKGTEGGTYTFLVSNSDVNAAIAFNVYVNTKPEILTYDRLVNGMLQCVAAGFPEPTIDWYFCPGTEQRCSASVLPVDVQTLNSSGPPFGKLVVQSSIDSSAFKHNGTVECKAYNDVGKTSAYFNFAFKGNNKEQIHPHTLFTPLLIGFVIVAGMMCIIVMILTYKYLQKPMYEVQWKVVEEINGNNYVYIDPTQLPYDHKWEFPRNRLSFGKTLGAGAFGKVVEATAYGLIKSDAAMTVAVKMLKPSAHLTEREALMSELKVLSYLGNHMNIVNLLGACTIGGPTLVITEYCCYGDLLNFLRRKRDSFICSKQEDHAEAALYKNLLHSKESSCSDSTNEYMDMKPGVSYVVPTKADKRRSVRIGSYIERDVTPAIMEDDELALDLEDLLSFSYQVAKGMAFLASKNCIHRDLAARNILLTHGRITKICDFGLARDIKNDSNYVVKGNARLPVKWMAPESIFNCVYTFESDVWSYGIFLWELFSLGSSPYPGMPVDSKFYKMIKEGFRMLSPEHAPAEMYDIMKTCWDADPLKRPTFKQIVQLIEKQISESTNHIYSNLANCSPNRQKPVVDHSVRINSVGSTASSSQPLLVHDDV

As for `Cc1ccc(-c2cnc(C3CC3)nc2)cc1NC(=O)c1cnn2ccc(N3CC4(COC4)C3)cc12` [Example 340], in test [1], the IC50 was below 100 nM. In test [2], this molecule registered an EC50 below 100 nM.
As for `Cc1ccc(-c2cnc(C3CC3)cn2)cc1NC(=O)c1cnn2ccc(N3CC4(COC4)C3)cc12` [Example 341], in test [1], the IC50 is below 100 nM. Further, the EC50 in test [2] was below 100 nM.
On to `Cc1ccc(-c2ccc(C3CC3)nc2)cc1NC(=O)c1cnn2ccc(N3CC4(COC4)C3)cc12` [Example 342], for which the IC50 in test [1] is below 100 nM. In test [2], this molecule showed an EC50 below 100 nM.
For the molecule `Cc1ccc(-c2ccc(C3CC3)nn2)cc1NC(=O)c1cnn2ccc(N3CC4(COC4)C3)cc12` [Example 343], the IC50 in test [1] was below 100 nM. Also, in test [2], the EC50 was below 100 nM.
Regarding `Cc1ccc(-c2ncc(C(F)F)cn2)cc1NC(=O)c1cnn2ccc(N3CC4(COC4)C3)cc12` [Example 344], the IC50 in test [1] fell in the range of 100 to 1000 nM. The EC50 in test [2] was below 100 nM.
`Cc1ccc(-c2ncc(C(C)C)cn2)cc1NC(=O)c1cnn2ccc(N3CC4(COC4)C3)cc12` [Example 345]: the IC50 in test [1] was below 100 nM. In test [2], this molecule had an EC50 below 100 nM.
As to `Cc1sc(-c2ncc(C3CC3)cn2)cc1NC(=O)c1cnn2ccc(N3CC4(C3)CC(O)(C(F)F)C4)cc12` [Example 346], in test [1], the IC50 is below 100 nM. Also, in test [2], the EC50 is below 100 nM.
Turning to `Cc1sc(-c2nccc(C3CC3)n2)cc1NC(=O)c1cnn2ccc(N3CC4(C3)CC(O)(C(F)F)C4)cc12` [Example 347], the IC50 in test [1] is 100 to 1000 nM. This molecule gave an EC50 in test [2] of 100 to 1000 nM.
Consider `Cc1ccc(-c2ncc(OC(F)(F)F)cn2)cc1NC(=O)c1cnn2ccc(N3CC4(COC4)C3)cc12` [Example 348], for which, in test [1], the IC50 was below 100 nM. In addition, the EC50 in test [2] is below 100 nM.
Turning to `Cc1ccc(-c2ccc(C(C)C)cn2)cc1NC(=O)c1cnn2ccc(N3CC4(COC4)C3)cc12` [Example 349], in test [1], the IC50 is below 100 nM. This molecule displayed an EC50 in test [2] below 100 nM.
As for `O=C(Nc1cc(-c2ccc(C3CC3)cn2)ccc1Cl)c1cnn2ccc(N3CC4(COC4)C3)cc12` [Example 350], in test [1], the IC50 was above 1000 nM. This molecule showed an EC50 in test [2] above 1000 nM.
On to `Cc1ccc(-c2ccc(C3CC3)cn2)cc1NC(=O)c1cnn2ccc(N3CC4(C3)CC(O)(C(F)F)C4)cc12` [Example 351], for which the IC50 in test [1] is below 100 nM. The EC50 in test [2] was below 100 nM.
Take `O=C(Nc1cc(-c2ccc(C3CC3)cn2)ccc1Cl)c1cnn2ccc(N3CC4(C3)CC(O)(C(F)F)C4)cc12` [Example 352]: the IC50 in test [1] is above 1000 nM. The EC50 in test [2] is above 1000 nM.
As to `Cc1ccc(-c2cnc(C3CC3)nc2)cc1NC(=O)c1cnn2ccc(N3CC4(C3)CC(O)(C(F)F)C4)cc12` [Example 353], in test [1], the IC50 was below 100 nM. The EC50 in test [2] is below 100 nM.
Turning to `Cc1ccc(-c2cnc(N3CC(O)(C(F)(F)F)C3)nc2)cc1NC(=O)c1cnn2ccc(N3CC4(COC4)C3)cc12` [Example 354], the IC50 in test [1] is below 100 nM. In test [2], this molecule came in with an EC50 below 100 nM.
Take `Cc1sc(-c2cnc(C3CC3)nc2)cc1NC(=O)c1cnn2ccc(N3CC4(C3)CC(O)(C(F)F)C4)cc12` [Example 355]: the IC50 in test [1] fell in the range of 100 to 1000 nM. The molecule also registered a 50% effective concentration (EC50) in test [2] below 100 nM.
Regarding `Cc1ncc(-c2ccc(C3CC3)cn2)cc1NC(=O)c1cnn2ccc(N3CC4(C3)CC(O)(C(F)F)C4)cc12` [Example 356], the IC50 in test [1] is below 100 nM. Also, the EC50 in test [2] is below 100 nM.
Regarding `Cc1ncc(-c2ccc(C3CC3)cn2)cc1NC(=O)c1cnn2ccc(N3CC4(COC4)C3)cc12` [Example 357], the IC50 in test [1] is 100 to 1000 nM. The molecule further showed an EC50 in test [2] below 100 nM.
In the case of `Cc1ncc(-c2ncc(OC(F)(F)F)cn2)cc1NC(=O)c1cnc(-c2ccc3c(c2)CC(=O)N3)o1` [Example 358, N-(2-methyl-5-(5-(trifluoromethoxy)pyrimidin-2-yl)pyridin-3-yl)-2-(2-oxoindolin-5-yl)oxazole-5-carboxamide], the IC50 in test [1] was above 1000 nM. The molecule also yielded an EC50 in test [2] of 100 to 1000 nM.
Turning to `Cc1ccc(-c2ncc(OC(F)F)cn2)cc1NC(=O)c1cnc(-c2ccc3c(c2)CC(=O)N3)o1` [Example 359], the IC50 in test [1] lay in the range of 100 to 1000 nM. Further, in test [2], the EC50 is 100 to 1000 nM.
Consider `Cc1ccc(-c2ncc(OC(F)(F)F)cn2)cc1NC(=O)c1cnc(-c2ccc3c(c2)CC(=O)N3)o1` [Example 360], for which the half-inhibitory concentration (IC50) in test [1] fell in the range of 100 to 1000 nM. Moreover, in test [2], the EC50 fell in the range of 100 to 1000 nM.
For `Cc1ncc(-c2ncc(C3CC3)cn2)cc1NC(=O)c1cnc(-c2ccc3c(c2)CC(=O)N3)o1` [Example 361], the IC50 in test [1] was 100 to 1000 nM. The same molecule showed an EC50 in test [2] of 100 to 1000 nM.
For `Cc1ncc(-c2ncc(OC(F)F)cn2)cc1NC(=O)c1cnc(-c2ccc3c(c2)CC(=O)N3)o1` [Example 362], the IC50 in test [1] is 100 to 1000 nM. The same molecule displayed a 50% effective concentration (EC50) in test [2] of 100 to 1000 nM.
Consider `Cc1ccc(-c2ncc(C3CC3)cn2)cc1NC(=O)c1cnc(-c2ccc3c(c2)CC(=O)N3)o1` [Example 363], for which, in test [1], the IC50 is below 100 nM. The molecule also returned an EC50 in test [2] below 100 nM.
For the molecule `Cc1ccc(-c2ncc(C3CC3)cn2)cc1NC(=O)c1cnn2ccc(-c3c(C)nc(N)nc3C)cc12` [Example 365], the IC50 in test [1] is 100 to 1000 nM. This molecule also came in with an EC50 in test [2] below 100 nM.
The corresponding values for `Cc1ccc(-c2ncc(OC(F)F)cn2)cc1NC(=O)c1cnn2ccc(-c3c(C)nc(N)nc3C)cc12` [Example 366] are above 1000 nM and 100 to 1000 nM.
For the molecule `Cc1ccc(-c2ncc(OC(F)(F)F)cn2)cc1NC(=O)c1cnn2ccc(-c3c(C)nc(N)nc3C)cc12` [Example 367], the IC50 in test [1] lay in the range of 100 to 1000 nM. The same molecule came in with an EC50 in test [2] of 100 to 1000 nM.
`Cc1ncc(-c2ncc(C3CC3)cn2)cc1NC(=O)c1cnn2ccc(-c3c(C)nc(N)nc3C)cc12` [Example 371-1]: the IC50 in test [1] is above 1000 nM. In test [2], the EC50 is 100 to 1000 nM.
As to `Cc1ccc(-c2nnc([C@H]3C[C@@H]3F)o2)cc1NC(=O)c1cnc(-c2ccc3c(c2)CC(=O)N3)o1` [Example 374], the IC50 in test [1] lay in the range of 100 to 1000 nM. Further, the EC50 in test [2] is 100 to 1000 nM.
With `Cc1ncc(-c2cn(C3CC3)nn2)cc1NC(=O)c1cnn2ccc(N3CC4(C3)CC(O)(C(F)F)C4)cc12` [Example 377], the IC50 in test [1] is 100 to 1000 nM. Further, the EC50 in test [2] is below 100 nM.

Broadly, the IC50 is the concentration needed to halve the response being measured. One may read the EC50 as the concentration giving half of the maximal effect. Lower therefore signals higher potency in that assay.
